“And” between values parts separate entries of the source, which are not always exact repeats. Equal values may be shown once. “Also recorded” adds a separate entry of the source. Read-outs that look alike come from different tables or passages of the source.
What was measured:
[1] = test system: Japanese patients with advanced solid tumors; assay: Safety assessment: adverse events (CTCAE v 4.0), DLT/DLET, phase 1 dose escalation; format: in vivo, human
Experimental: The study consisted of 2 dose levels of crenigacestat (25 mg and 50 mg), administered orally TIW prior to a meal. A cycle was defined as 28 days. Patients were admitted to the investigational site for 4 weeks through the entire first cycle but were discharged and managed on an outpatient basis on or after day 15 upon investigator discretion. The planned duration of treatment was not fixed. Treatment continued until disease progression, development of unacceptable toxicity, or any other discontinuation criteria were met.
Data were evaluated on an ongoing basis until the tolerability of crenigacestat for 50 mg was confirmed. Safety data, in particular adverse events (AEs), were the primary criteria for dose escalation. Dose escalation was driven for each treatment combination using the 3 + 3 method. Transition of dose level (from 25 to 50 mg) proceeded if the frequency of dose-limiting toxicity (DLT) observed in cycle 1 was <33% of patients in the first dose level (25 mg). For DLTs, an evaluable patient was defined as a patient who received ≥75% of the planned dose in cycle 1 or a patient who experienced DLT in cycle 1.
Adverse events were collected throughout the study and coded using Medical Dictionary for Regulatory Activities (MedDRA) terms (Version 22.0). […]

[2] = test system: advanced solid tumors in Japanese patients; assay: Efficacy assessment: tumor response (RECIST v1.1); format: in vivo, human
Experimental: Tumor response, including overall response rate, was measured using RECIST v1.1 [12] or the Response Assessment in Neuro-Oncology criteria for glioblastoma. Patient’s full extent of disease was also assessed via evaluation of performance status (ECOG). Where applicable, tumor measurements were performed by positron emission tomography response criteria of the European Organization for Research and Treatment of Cancer, as well as evaluation of tumor markers. To confirm objective responses, all lesions were radiologically assessed and the same radiologic method used at baseline and for the initial response determination was repeated at least 4 weeks following the initial observation of an objective response.

[3] = Pharmacokinetics: plasma concentrations by LC-MS/MS, noncompartmental analysis; format: in vivo; conditions: human; for AUC(0-inf) / Cmax / AUC(0-t): geometric mean (%CV); for AUC(0-t): read-out: AUC0–48
Experimental: All patients who received at least 1 dose of the study drug, and had sufficient samples collected, were included in the PK analysis. […] Plasma concentrations of crenigacestat were quantified using a validated liquid chromatography-tandem mass spectrometry (LC-MS/MS) assay. The PK parameters for crenigacestat were calculated by standard noncompartmental methods of analysis. The primary PK parameters for analysis were maximum plasma concentration (Cmax) and area under the plasma concentration-time curve (AUC) from time zero to infinity or over 1 dosing interval at steady state of crenigacestat.

[4] = test system: non-Japanese patients with advanced or metastatic cancers; set-up: method as in PMID 30060061; conditions: TIW during a 28-day cycle; cited from earlier work
[5] = po, 25 mg, Day 1 (Dose 1), 25 mg oral TIW
[6] = po, 25 mg, Day 22 (Dose 10), 25 mg oral TIW
[7] = po, 50 mg, Day 1 (Dose 1), 50 mg oral TIW
[8] = po, 50 mg, Day 22 (Dose 10), 50 mg oral TIW

Q: With C[C@H](NC(=O)CCC(F)(F)F)C(=O)N[C@@H]1C(=O)N(CCO)c2ncccc2-c2ccccc21 [Crenigacestat, crenigacestat] as the compound, how does the “Serious adverse events (SAEs), discontinuation or death due to an AE” value ([1]; both treatment arms, on treatment or within 30 days of discontinuation) read?
A: no patients who reported any serious adverse events (SAEs), discontinued study treatment due to an adverse event (AEs) or SAE, or died due to an AE

Q: What about the “Recommended dose in Japanese patients” value ([1]; human, in vivo, po, 28 days) of the same compound?
A: 50 mg

Q: What about the “Complete or partial response to the treatment” value ([2]; 25 mg and 50 mg oral TIW, all patients) of the same compound?
A: None of the patients had a complete or partial response; also recorded: no partial or complete responses

Q: What about the “Best overall response: Complete response (CR)” value ([2]; 25 mg oral TIW (n = 4)) of the same compound?
A: 0 n (%)

Q: What about the “Best overall response: Partial response (PR)” value ([2]; 25 mg oral TIW (n = 4)) of the same compound?
A: 0 n (%)

Q: And the “Best overall response: Progressive disease” value ([2]; 25 mg oral TIW (n = 4))?
A: 4 (100.0) n (%)

Q: What about the “Disease control rate (CR/PR/SD)” value ([2]; 25 mg oral TIW (n = 4)) of the same compound?
A: 0 n (%)

Q: And the “Best overall response: Complete response (CR)” value ([2]; 50 mg oral TIW (n = 7))?
A: 0 n (%)

Q: And the “Best overall response: Partial response (PR)” value ([2]; 50 mg oral TIW (n = 7))?
A: 0 n (%)

Q: What about the “Best overall response: Progressive disease” value ([2]; 50 mg oral TIW (n = 7)) of the same compound?
A: 6 (85.7) n (%)

Q: And the “Disease control rate (CR/PR/SD)” value ([2]; 50 mg oral TIW (n = 7))?
A: 1 (14.3) n (%)

Q: What about the “Duration of stable disease” value ([2]; one patient with a desmoid tumor, 50-mg treatment arm) of the same compound?
A: 22.5 months and 22.47 months

Q: What about the Tumor size shrinkage ([2]; one patient with a desmoid tumor, 50-mg treatment arm, first 8 cycles) of the same compound?
A: 22.4% and 22.37%

Q: What about the AUC(0-inf) ([3]; Day 1 (Dose 1), 25 mg oral TIW) of the same compound?
A: 1480 ng·h/mL

Q: What about the AUC(0-inf) ([3]; Day 1 (Dose 1), 50 mg oral TIW) of the same compound?
A: 3080 ng·h/mL

Q: And the Tmax ([3]; oral, postdose, each dose level, read-out: Median time to maximum plasma concentration (tmax))?
A: ~2 h

Q: And the half-life ([3]; po, 25 mg and 50 mg oral TIW, read-out: Mean t1/2 (converted))?
A: ~4 h

Q: What about the Cmax [3, 5] of the same compound?
A: 324 ng/mL

Q: And the AUC(0-t) [3, 5]?
A: 1480 ng·h/mL

Q: What about the Tmax ([3]; po, 25 mg, Day 1 (Dose 1), 25 mg oral TIW, read-out: tmax, median (range)) of the same compound?
A: 1.92 h

Q: What about the half-life ([3]; po, 25 mg, Day 1 (Dose 1), 25 mg oral TIW, read-out: t½, geometric mean (range) (converted)) of the same compound?
A: 3.64 h

Q: And the Cmax [3, 6]?
A: 429 ng/mL

Q: What about the AUC(0-t) [3, 6] of the same compound?
A: 2070 ng·h/mL

Q: What about the Tmax ([3]; po, 25 mg, Day 22 (Dose 10), 25 mg oral TIW, read-out: tmax, median (range)) of the same compound?
A: 1.88 h

Q: What about the half-life ([3]; po, 25 mg, Day 22 (Dose 10), 25 mg oral TIW, read-out: t½, geometric mean (range) (converted)) of the same compound?
A: 4.19 h

Q: And the Cmax [3, 7]?
A: 670 ng/mL

Q: What about the AUC(0-t) [3, 7] of the same compound?
A: 3080 ng·h/mL

Q: And the Tmax ([3]; po, 50 mg, Day 1 (Dose 1), 50 mg oral TIW, read-out: tmax, median (range))?
A: 1.93 h

Q: And the half-life ([3]; po, 50 mg, Day 1 (Dose 1), 50 mg oral TIW, read-out: t½, geometric mean (range) (converted))?
A: 3.89 h

Q: And the Cmax [3, 8]?
A: 416 ng/mL

Q: And the AUC(0-t) [3, 8]?
A: 2090 ng·h/mL

Q: What about the Tmax ([3]; po, 50 mg, Day 22 (Dose 10), 50 mg oral TIW, read-out: tmax, median (range)) of the same compound?
A: 1.94 h

Q: And the half-life ([3]; po, 50 mg, Day 22 (Dose 10), 50 mg oral TIW, read-out: t½, geometric mean (range) (converted))?
A: 3.67 h

Q: And the “Recommended phase 2 dose, monotherapy” value [4]?
A: 50 mg
